From patent US8962660B2 (Bristol-Myers Squibb Company, priority 2013, dated 2015)

The compounds below were run against T1, human GPR120 (Homo sapiens, UniProt Q5NUL3) (assay: GPR120 pERK AlphaScreen SureFire assay (human)). Settings: CHO cells stably transfected with short form of human GPR120.
T1 construct: expressed in transfected cells; host or cells: CHOA12 cells
T1 sequence (Q5NUL3 1-361): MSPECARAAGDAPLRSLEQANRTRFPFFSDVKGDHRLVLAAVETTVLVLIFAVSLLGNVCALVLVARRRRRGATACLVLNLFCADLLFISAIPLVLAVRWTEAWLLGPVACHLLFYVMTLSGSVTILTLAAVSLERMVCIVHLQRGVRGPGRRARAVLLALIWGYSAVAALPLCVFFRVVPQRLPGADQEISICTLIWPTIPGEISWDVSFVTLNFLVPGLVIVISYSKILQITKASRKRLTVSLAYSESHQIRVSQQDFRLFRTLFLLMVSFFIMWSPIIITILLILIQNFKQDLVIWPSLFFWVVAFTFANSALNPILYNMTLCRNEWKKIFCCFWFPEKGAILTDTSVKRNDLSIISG
Assay type: cell-based
Excerpt: GPR120 activity was monitored by measuring phosphorylation of ERK (pERK), since G protein receptors are known to activate the ERK signaling cascade either directly and/or through recruitment of arrestin that serves as a scaffold for downstream signaling events.
GPR120 pERK AlphaScreen SureFire Assay
The human and mouse GPR120-mediated intracellular phosphorylated ERK assays were established using CHOA12 cells stably transfected with the short form of human or mouse GPR120 receptor. Cells were cultured in growth medium consisting of F-12 media (Invitrogen Cat. #11765) with 5% Charcoal/Dextran FBS (Invitrogen Cat. #12676-029), 500 μg/mL GENETICIN® (Life Technologies Cat. #10131-027) and 250 μg/mL Zeocin (Invitrogen Cat. #R250-01). Cells were cryo preserved at a concentration of 2×10^7 cells/mL, in 90% Charcoal/Dextran FBS and 10% DMSO, and frozen in liquid nitrogen at a low passage number.
For the pERK assay, 2×10^7 cells/mL cryopreserved human and mouse cells were thawed rapidly in a 37° C. water bath and added to a T-225 flask containing 50 mL growth medium. The flasks were placed in a tissue culture incubator overnight (37° C., 5% CO2). The next day, cells were harvested with trypsin (Gibco Cat. #25300-054), resuspended in serum-containing growth medium and counted using a Cellometer and volume adjusted to a concentration of 0.6×10^6cells/mL. Cells were plated into 384-well clear bottom tissue culture plates (BD Cat. #353962) at 50 μL/well, for a density of 30,000 cells/well using a MULTIDROP® and incubated for 16-18 hours (overnight) at 37° C. with 5% CO2. The next day, cells were serum starved in 30 μL of F-12 media without any serum or antibiotics for 2 hours at 37° C.
Test compounds were 3-fold, 11-point serially diluted in DMSO in a REMP assay plate (Matrix Cat. #4307) by Tecan and 5 μL was transferred into an ECHO source plate (LABCYTE® Cat. #LC-0200). Cells were then stimulated with 50 nL of compound dilutions using ECHO liquid handler for 7 minutes at 37° C. Compounds ranged from final assay concentrations of 33.33 μM to 0.56 nM.
The media was then dumped and cells lysed with 20 μL of 1× Lysis buffer from the AlphaScreen SureFire Phospho-ERK 1/2 Kit (Perkin Elmer Cat. #6760617M). The lysis buffer was diluted 5-fold with water before use. The plate was agitated on a shaker for 10 minutes after which 2 μL was transferred into a 384-well white proxiplate (Perkin Elmer Cat. #6008289). The SureFire assay reagent mix was prepared by mixing 60 parts Reaction Buffer, 10 parts Activation Buffer, 1 part Donor Beads, 1 part Acceptor Beads (Perkin Elmer Cat. #TGRES10K). 3.5 μL/well of this reagent mix was manually added to the proxiplate with a multichannel pipettor. Plates were spun down at 1000 rpm for 2 minutes, followed by light-protected incubation at room temperature for 2 hours. The plates were read on the Alpha-technology compatible Envision multilabel plate reader using AlphaScreen protocol according to manufacturer's specifications. The agonist effect of compounds was expressed as 100×(average sample−average blank)/(average total−average blank) where sample is the luminescence activity in the presence of test compound, blank is equal to the luminescence activity in the presence of DMSO control and the total is signal induced by 50 μM linolenic acid as reference compound. Activation data for the test compound over a range of concentrations was plotted as percentage activation of the test compound (100%=maximum response). After correcting for background, EC50 values were determined The EC50 is defined as the concentration of test compound which produces 50% of the maximal response and was quantified using the 4 parameter logistic equation to fit the data.
The human and mouse GPR120-mediated intracellular phosphorylated ERK assays were also established using CHO-K1 cells stably transfected with the short form of human or mouse GPR120 receptor. […]

Compound	EC50 [nM]
N#Cc1cccc(Oc2cccc(C34CCC(CCOCC(=O)O)(CC3)CO4)c2)c1 [Example 46, 2-(2-(1-(3-(3-Cyanophenoxy)phenyl)-2-oxabicyclo[2.2.2]octan-4-yl)ethoxy)acetic acid]	2570
Cc1nc(-c2cccc(C34CCC(CCOCC(=O)O)(CC3)CO4)c2)no1 [Example 48, 2-(2-(1-(3-(5-Methyl-1,2,4-oxadiazol-3-yl)phenyl)-2-oxabicyclo[2.2.2]octan-4-yl)ethoxy)acetic acid]	6760
O=C(O)COCCC12CCC(c3cccc(C(F)(F)F)c3)(CC1)OC2 [Example 49, 2-(2-(1-(3-(Trifluoromethyl)phenyl)-2-oxabicyclo[2.2.2]octan-4-yl)ethoxy)acetic acid]	3310
O=C(O)COCCC12CCC(c3cccc(Cc4ccccc4)c3)(CC1)OC2 [Example 50, 2-(2-(1-(3-Benzylphenyl)-2-oxabicyclo[2.2.2]octan-4-yl)ethoxy)acetic acid]	1360
O=C(O)COCCC12CCC(c3cccc(OCC4CCC4)c3)(CC1)OC2 [Example 51, 2-(2-(1-(3-(Cyclobutylmethoxy)phenyl)-2-oxabicyclo[2.2.2]octan-4-yl)ethoxy)acetic acid]	1090
O=C(O)COCCC12CCC(c3cccc(OCC4CCCCC4)c3)(CC1)OC2 [Example 52, 2-(2-(1-(3-(Cyclohexylmethoxy)phenyl)-2-oxabicyclo[2.2.2]octan-4-yl)ethoxy)acetic acid]	4340
O=C(O)COCCC12CCC(c3cc(F)cc(OCC(F)(F)F)c3)(CC1)OC2 [Example 54, 2-(2-(1-(3-Fluoro-5-(2,2,2-trifluoroethoxy)phenyl)-2-oxabicyclo[2.2.2]octan-4-yl)ethoxy)acetic acid]	3470
OCCCCC12CCC(c3cccc(Oc4ccccc4)c3)(CC1)OC2 [Example 57, 4-(1-(3-Phenoxyphenyl)-2-oxabicyclo[2.2.2]octan-4-yl)butan-1-ol]	1880
O=C(O)C1CC1CCC12CCC(c3cccc(OC4CCCCO4)c3)(CC1)OC2 (stereo not drawn) [Example 61, 2-(2-(1-(3-(Tetrahydro-2H-pyran-2-yloxy)phenyl)-2-oxabicyclo[2.2.2]octan-4-yl)ethyl) cyclopropanecarboxylic acid]	5230
COc1ccc(Oc2cccc(C34CCC(CC[C@@H]5C[C@H]5C(=O)O)(CC3)CO4)c2)cc1 [Example 71, (1R,2R)-2-(2-(1-(3-(4-methoxy-phenoxy)phenyl)-2-oxabicyclo[2.2.2]octan-4-yl)ethyl)cyclo-propane carboxylic acid]	1170

The next compounds have a lower EC50 than those just listed; values first:

EC50 [nM]	Compound
280	O=C(O)COCCC12CCC(c3cccc(Oc4cccc(F)c4)c3)(CC1)OC2 [Example 45, 2-(2-(1-(3-(3-fluorophenoxy)phenyl)-2-oxabicyclo[2.2.2]octan-4-yl)ethoxy) acetic acid]
1030	O=C(O)COCCC12CCC(c3cccc(OS(=O)(=O)C(F)(F)F)c3)(CC1)OC2 [Example 47, 2-(2-(1-(3-(Trifluoromethylsulfonyloxy)phenyl)-2-oxabicyclo[2.2.2]octan-4-yl)ethoxy)acetic acid]
330	O=C(O)COCCC12CCC(c3cc(F)cc(Oc4cccc(F)c4)c3)(CC1)OC2 [Example 55, 2-(2-(1-(3-Fluoro-5-(3-fluorophenoxy)phenyl)-2-oxabicyclo[2.2.2]octan-4-yl)ethoxy) acetic acid]
610	OCC(O)CCC12CCC(c3cccc(Oc4ccccc4)c3)(CC1)OC2 (stereo not drawn) [Example 56, 4-(1-(3-Phenoxyphenyl)-2-oxabicyclo[2.2.2]octan-4-yl)butane-1,2-diol]
490	O=C(O)[C@@H]1C[C@H]1CCC12CCC(c3cccc(Oc4cc(F)cc(F)c4)c3)(CC1)OC2 [Example 72, (1R,2R)-2-(2-(1-(3-(3,5-difluorophenoxy)phenyl)-2-oxabicyclo[2.2.2]octan-4-yl)ethyl) cyclopropanecarboxylic acid]
